Experimental data from PMC11696576, “Next generation thiazolyl ketone inhibitors of cytosolic phospholipase A2 α for targeted cancer therapy” (Nature Communications, 2025).
Where “and” joins values, the source holds several entries; their conditions need not be identical. Equal values may be shown once. Read-outs that look alike come from different tables or passages of the source. Marks after values point to notes of the source that are not given here.

What was measured:
[1] = stability in human plasma (LC-MS/MS); assay type: in vitro ADME; conditions: for Stability in human plasma 4 h: % of the compound remaining after 4 h
Method: The stability of the analogs in human plasma was studied over approximately 24 h by LC-MS/MS and the results at 4 h and the final timepoint (20–25 h) are included in Table 1.
The metabolic stability of the compounds was determined through in vitro stability assays in human plasma. Solutions of compounds in DMSO (20 mM) were diluted to 5 μg/mL in 50% methanol for infusion into the MS/MS system and spiking of calibration standards and control samples. For the MS detection, positive ionization in ESI mode was used. Good sensitivity, retention and peak shaped were achieved using a gradient with 5 mM ammonium carbamate in water and ammonium carbamate in 90% acetonitrile on a reversed phase column (ACE3AQ). Calibration standards were spiked in a calibration range of 0.5–100 ng/ml. Control samples were spiked at, low, medium, and high concentration levels. The spiked plasma samples were prepared by protein precipitation using acetonitrile containing appropriate internal standard (IS). […] Samples were prepared for analysis by taking 50 μL of plasma sample and adding 100 μL of IS working solution in acetonitrile followed by vortexing at 2500 rpm (Multi-tube vortexer DVX-2500, Henry Troemner LLC, USA) for 2 min. The samples were centrifuged at 5300 rpm (Heraeus Megafuge 1.0 Heraeus, Germany) for 3 min and the supernatant transferred to the autosampler. Recovery was determined by comparing the prepared matrix samples (protein precipitation) with a direct sample (analytes spikes in 67% acetonitrile = injection solution) such that the recovery of the sample preparation and the matrix effects were determined together. Two or three samples were each measured in technical triplicates to give the final % recovery.

SW982 synoviocytes = test: cellular arachidonic acid (AA) release assay, IL-1β stimulated; assay type: cell-based, human; conditions: for inhibition at 1 µM / inhibition at 5 µM / EC50 / IC50: Homo sapiens; for inhibition at 5 µM: SW982, 5 µM; for EC50 / IC50: SW982; for IC50: concentration in µM, read-out: logEC50 best-fit value, AA release (converted)
Text: To test the inhibitory activity of the compounds in cells, we measured their effect on the release of AA from synoviocytes stimulated with IL-1β (Table 2). […] Combined with favorable selectivity and stability it was thus chosen for further evaluation. We looked specifically at how it modulated eicosanoid levels in response to stimulation both in whole blood and in isolated peripheral blood mononuclear cells (PBMCs) and checked for off-target effects on AA metabolism in whole blood by also measuring the effect of GK420 on eicosanoid release in the presence of exogenous free AA.
The human synovial sarcoma cell line SW982 (ATCC, London, UK) was used to measure AA release. The cells were maintained in Dulbecco’s Modified Eagle Medium (DMEM) supplemented with 10% FBS, 0.1 mg/mL gentamicin, and 0.3 mg/mL L-glutamine at 37 °C with 10% CO2, and experiments were performed at 3 days post-confluence. To measure AA release, the cells were labeled overnight with ^3H-AA (0.4 μCi/mL) in serum-free DMEM and then washed twice with PBS containing fBSA (2 mg/mL) to remove unincorporated radioactivity. The inhibitors, or DMSO vehicle control, were subsequently added to the cells for 1 hour prior to stimulation with 10 ng/mL IL-1β for 4 h. Supernatants were collected and centrifuged at 300 × g for 5 min to clear them of detached cells and adherent cells were dissolved in 1 N NaOH. The ^3H-AA was assessed by liquid scintillation counting (LS 6500 Multi-Purpose Scintillation Counter, Beckman Coulter, Inc., USA) and the results are given as the inhibition of released ^3H-AA in the supernatants relative to total ^3H-AA incorporated into the cells, as described. EC50 values were calculated by fitting the % inhibition data to a three-parameter dose-response curve in GraphPad prism v10.4.0. Experiments were performed in technical triplicates and repeated at least three times.

[2] = target: T1, human calcium-independent GVIA iPLA2 (Homo sapiens, UniProt O60733); test: radioactivity-based mixed micelle assay, GVIA iPLA2; assay type: biochemical
T1 sequence (O60733 1-806): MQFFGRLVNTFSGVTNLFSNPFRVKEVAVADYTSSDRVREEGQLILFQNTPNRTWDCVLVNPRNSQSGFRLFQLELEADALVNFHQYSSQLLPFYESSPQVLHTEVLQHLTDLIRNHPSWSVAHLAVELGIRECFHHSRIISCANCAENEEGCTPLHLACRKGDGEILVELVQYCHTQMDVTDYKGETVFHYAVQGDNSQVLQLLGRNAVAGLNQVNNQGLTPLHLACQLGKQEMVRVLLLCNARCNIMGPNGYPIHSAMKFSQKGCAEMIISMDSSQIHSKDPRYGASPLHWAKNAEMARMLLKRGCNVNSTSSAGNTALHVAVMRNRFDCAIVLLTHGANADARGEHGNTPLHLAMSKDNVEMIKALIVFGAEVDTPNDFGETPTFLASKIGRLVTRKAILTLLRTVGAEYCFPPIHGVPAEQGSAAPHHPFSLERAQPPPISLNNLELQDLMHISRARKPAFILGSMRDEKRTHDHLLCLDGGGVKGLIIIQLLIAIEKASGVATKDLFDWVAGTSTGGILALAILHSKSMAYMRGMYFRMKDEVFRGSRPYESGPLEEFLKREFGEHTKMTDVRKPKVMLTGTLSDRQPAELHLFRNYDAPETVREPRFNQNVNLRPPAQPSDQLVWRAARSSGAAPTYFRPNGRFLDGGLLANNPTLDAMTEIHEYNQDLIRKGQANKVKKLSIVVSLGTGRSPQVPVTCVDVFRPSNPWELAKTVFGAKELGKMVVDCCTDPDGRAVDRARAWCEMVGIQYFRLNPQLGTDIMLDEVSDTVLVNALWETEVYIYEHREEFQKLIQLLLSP
Method: All synthesized thiazolyl ketones were tested for their in vitro inhibitory activity on recombinant human cPLA2α and selectivity over human calcium-independent GVIA iPLA2 and secreted GV sPLA2 using our previously described group-specific radioactivity-based mixed micelle assays. The inhibition results are presented either as per cent inhibition or as XI(50) values in Table 1. […] The XI(50) is defined as the mole fraction of the inhibitor in the total substrate interface required to inhibit the enzyme activity by 50%. For comparison purposes, previously published data for the inhibitor GK470[19] are included. […] Inhibitors were initially screened at 0.091 mol fraction (5 μL of 5 mM inhibitor in DMSO) in substrate (495 μL) in technical triplicates. […] The XI(50) value and stdev values reported are for the entire curve. This analysis was performed in GraphPad Prism v6.

[3] = individual sample, human plasma
[4] = 0.2 µM, individual biological replicate
[5] = 1 µM, individual biological replicate
[6] = 5 µM, individual biological replicate
[7] = SW982, 1 µM, individual biological replicate, read-out: % inhibition of stimulated AA release
[8] = individual biological replicate
[9] = SW982, 4 h, 1 µM inhibitor, IL-1β 4 h, mean ± stdev, read-out: AA release % Inhib
[10] = IL-1β 4 h, 0.2, 1 or 5 µM inhibitor, read-out: AA release EC50 µM (95% CI)
[11] = [Agonist] vs. Response (three parameters)
[12] = [Agonist] vs. Response (three parameters), read-out: EC50 best-fit value, AA release
[13] = 0.091 mole fraction, read-out: GVIA iPLA2 % Inhib
[14] = average of triplicates, read-out: iPLA2 % inhibition at 0.091 mole fraction, average
[15] = individual technical replicate, read-out: iPLA2 % inhibition at 0.091 mole fraction
[16] = % of the compound remaining after 20 h

SMILES	Stability in human plasma 4 h [1]	Stability in human plasma 20+ h ([1]; % of the compound remaining after 25 h (¤))	plasma stability 4h (%) [1, 3]	plasma stability 25h (%) [1, 3]	% inhibition of stimulated AA release (SW982 synoviocytes; [4])	% inhibition of stimulated AA release (SW982 synoviocytes; [5])	% inhibition of stimulated AA release (SW982 synoviocytes; [6])	inhibition at 1 µM (SW982 synoviocytes; [7])	inhibition at 5 µM (SW982 synoviocytes; [8])	inhibition at 1 µM (SW982 synoviocytes; [9])	EC50 (SW982 synoviocytes; [10])	IC50 (SW982 synoviocytes; [11])	EC50 (SW982 synoviocytes; [12])	inhibition at 0.091 mole fraction [2, 13]	inhibition at 0.091 mole fraction [2, 14]	inhibition at 0.091 mole fraction [2, 15]	Stability in human plasma 20+ h ([1]; % of the compound remaining after 24 h 39 min (*))	plasma stability 24h39min (%) [1, 3]	Stability in human plasma 20+ h [1, 16]	plasma stability 20h (%) [1, 3]
CCCCCCCCc1ccc(OCC(=O)c2nc(C(=O)OCC)cs2)cc1 [GK401]	69.3%	16.25¤ %	65.9% and 74% and 67.2%	16.8% and 15.7%	23.49% and 44.31% and 23.09% and 42.93%	46.19% and 56.11% and 60.73%	83.12% and 89.8% and 99.4%	49.8%	92.1%	53 ± 6%	0.63 µM	0.63 µM	0.63 µM	40%	39.8%	41.2%				
COC(=O)c1csc(C(=O)COc2ccc(Oc3ccc(F)cc3)cc2)n1 [GK440]	21.3%		20.1% and 22.4%		52.34% and 48.93% and 32.32% and 54.12%	77.97% and 89.75% and 95.95%	121.05% and 107.56% and 129.55% and 117.95%	90%		88 ± 8%	0.18 µM	0.184 µM	0.184 µM	0%	0%	0%	0.9* %	0.5% and 1.3%		
CCCCCCCOc1ccc(OCC(=O)c2nc(C(=O)OC)cs2)cc1 [GK420]	63.3%		64.7% and 61.9%		55.97% and 44.95% and 68.85% and 89.01%	102.49% and 78.04% and 96.65% and 110.97%	103.28% and 116.15% and 112.68%		119%	97 ± 14%	0.09 µM	0.0942 µM	0.0943 µM	0%	0%	0%			18.05%	19.1% and 17%
COC(=O)c1csc(C(=O)C(C)Oc2ccc(Oc3ccccc3)cc2)n1 (stereo not drawn) [GK428]	35.9%		36.5% and 35.3%		5.86% and -31.46% and 2.89% and 15.93%	17.3% and 4.11% and 8.14% and 18.84%	51.1% and 33.6% and 14.73% and 37.63%			12 ± 7%	9.34 µM	9.34 µM	9.34 µM	54%	53.6%	54.3%			1.65%	2.1% and 1.2%
